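At the GI50, growth is halved. At the TGI there is no net growth.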
Experiments:
Test in all cases: NCI anticancer screen, dose series, 384-well format
786-0 renal = tested on: 786-0 renal
A498 renal = tested on: A498 renal
A549 NSCLC = tested on: A549 NSCLC
ACHN renal = tested on: ACHN renal
BT-549 breast = tested on: BT-549 breast
CAKI-1 renal = tested on: CAKI-1 renal
CCRF-CEM leukemia = tested on: CCRF-CEM leukemia
COLO 205 colon = tested on: COLO 205 colon
DU-145 prostate = tested on: DU-145 prostate
EKVX NSCLC = tested on: EKVX NSCLC
HCC-2998 colon = tested on: HCC-2998 colon
HCT-15 colon = tested on: HCT-15 colon
HL-60(TB) leukemia = tested on: HL-60(TB) leukemia
HOP-62 NSCLC = tested on: HOP-62 NSCLC
HOP-92 NSCLC = tested on: HOP-92 NSCLC
HS 578T breast = tested on: HS 578T breast
HT29 colon = tested on: HT29 colon
IGROV1 ovarian = tested on: IGROV1 ovarian
KM12 colon = tested on: KM12 colon
M14 melanoma = tested on: M14 melanoma
MALME-3M melanoma = tested on: MALME-3M melanoma
MCF7 breast = tested on: MCF7 breast
MDA-MB-231 breast = tested on: MDA-MB-231 breast
MDA-MB-435 melanoma = tested on: MDA-MB-435 melanoma
MDA-MB-468 breast = tested on: MDA-MB-468 breast
MOLT-4 leukemia = tested on: MOLT-4 leukemia
NCI-H226 lung = tested on: NCI-H226 lung
NCI-H23 lung = tested on: NCI-H23 lung
NCI-H322M lung = tested on: NCI-H322M lung
NCI-H460 NSCLC = tested on: NCI-H460 NSCLC
NCI-H522 lung = tested on: NCI-H522 lung
NCI/ADR-RES ovarian = tested on: NCI/ADR-RES ovarian
OVCAR-3 ovarian = tested on: OVCAR-3 ovarian
OVCAR-4 ovarian = tested on: OVCAR-4 ovarian
OVCAR-5 ovarian = tested on: OVCAR-5 ovarian
OVCAR-8 ovarian = tested on: OVCAR-8 ovarian
PC-3 prostate = tested on: PC-3 prostate
RPMI-8226 leukemia = tested on: RPMI-8226 leukemia
RXF 393 renal = tested on: RXF 393 renal
SF-268 CNS = tested on: SF-268 CNS
SF-295 CNS = tested on: SF-295 CNS
SF-539 CNS = tested on: SF-539 CNS
SK-MEL-2 melanoma = tested on: SK-MEL-2 melanoma
SK-MEL-28 melanoma = tested on: SK-MEL-28 melanoma
SK-MEL-5 melanoma = tested on: SK-MEL-5 melanoma
SK-OV-3 ovarian = tested on: SK-OV-3 ovarian
SN12C renal = tested on: SN12C renal
SNB-19 CNS = tested on: SNB-19 CNS
SNB-75 CNS = tested on: SNB-75 CNS
SR leukemia = tested on: SR leukemia
SW-620 colon = tested on: SW-620 colon
T-47D breast = tested on: T-47D breast
TK-10 renal = tested on: TK-10 renal
U251 glioblastoma = tested on: U251 glioblastoma
UACC-257 melanoma = tested on: UACC-257 melanoma
UACC-62 melanoma = tested on: UACC-62 melanoma

SMILES: COc1cccc(-c2cc(=O)c3ccccc3o2)c1N
- GI50 (786-0 renal): > 100 µM
- TGI (786-0 renal): > 100 µM
- GI50 (A498 renal): 49.7 µM
- TGI (A498 renal): > 100 µM
- GI50 (A549 NSCLC): > 100 µM
- TGI (A549 NSCLC): > 100 µM
- GI50 (ACHN renal): > 100 µM
- TGI (ACHN renal): > 100 µM
- GI50 (BT-549 breast): 77.3 µM
- TGI (BT-549 breast): > 100 µM
- GI50 (CAKI-1 renal): > 100 µM
- TGI (CAKI-1 renal): > 100 µM
- GI50 (CCRF-CEM leukemia): 23.1 µM
- TGI (CCRF-CEM leukemia): 67.6 µM
- GI50 (COLO 205 colon): 3.97 µM
- TGI (COLO 205 colon): 10.8 µM
- GI50 (DU-145 prostate): 54.9 µM
- TGI (DU-145 prostate): > 100 µM
- GI50 (EKVX NSCLC): 37.1 µM
- TGI (EKVX NSCLC): > 100 µM
- GI50 (HCC-2998 colon): 13.8 µM
- TGI (HCC-2998 colon): 58 µM
- GI50 (HCT-15 colon): 91.8 µM
- TGI (HCT-15 colon): > 100 µM
- GI50 (HL-60(TB) leukemia): 2.79 µM
- TGI (HL-60(TB) leukemia): 21.2 µM
- GI50 (HOP-62 NSCLC): 33.1 µM
- TGI (HOP-62 NSCLC): > 100 µM
- GI50 (HOP-92 NSCLC): 56.1 µM
- TGI (HOP-92 NSCLC): > 100 µM
- GI50 (HS 578T breast): 47.7 µM
- TGI (HS 578T breast): > 100 µM
- GI50 (HT29 colon): 13.2 µM
- TGI (HT29 colon): > 100 µM
- GI50 (IGROV1 ovarian): 30.7 µM
- TGI (IGROV1 ovarian): > 100 µM
- GI50 (KM12 colon): 40.7 µM
- TGI (KM12 colon): > 100 µM
- GI50 (M14 melanoma): 3.91 µM
- TGI (M14 melanoma): 20 µM
- GI50 (MALME-3M melanoma): 2.25 µM
- TGI (MALME-3M melanoma): 5.26 µM
- GI50 (MCF7 breast): 88.1 µM
- TGI (MCF7 breast): > 100 µM
- GI50 (MDA-MB-231 breast): 40.4 µM
- TGI (MDA-MB-231 breast): > 100 µM
- GI50 (MDA-MB-435 melanoma): 10.4 µM
- TGI (MDA-MB-435 melanoma): > 100 µM
- GI50 (MDA-MB-468 breast): 0.278 µM
- TGI (MDA-MB-468 breast): 0.844 µM
- GI50 (MOLT-4 leukemia): 25.9 µM
- TGI (MOLT-4 leukemia): 66.5 µM
- GI50 (NCI-H226 lung): 25 µM
- TGI (NCI-H226 lung): 70.2 µM
- GI50 (NCI-H23 lung): 23.9 µM
- TGI (NCI-H23 lung): 99.5 µM
- GI50 (NCI-H322M lung): > 100 µM
- TGI (NCI-H322M lung): > 100 µM
- GI50 (NCI-H460 NSCLC): 66.1 µM
- TGI (NCI-H460 NSCLC): > 100 µM
- GI50 (NCI-H522 lung): 30 µM
- TGI (NCI-H522 lung): > 100 µM
- GI50 (NCI/ADR-RES ovarian): 25.1 µM
- TGI (NCI/ADR-RES ovarian): 74.7 µM
- GI50 (OVCAR-3 ovarian): 65 µM
- TGI (OVCAR-3 ovarian): > 100 µM
- GI50 (OVCAR-4 ovarian): 28.1 µM
- TGI (OVCAR-4 ovarian): > 100 µM
- GI50 (OVCAR-5 ovarian): 43.1 µM
- TGI (OVCAR-5 ovarian): > 100 µM
- GI50 (OVCAR-8 ovarian): 38 µM
- TGI (OVCAR-8 ovarian): > 100 µM
- GI50 (PC-3 prostate): > 100 µM
- TGI (PC-3 prostate): > 100 µM
- GI50 (RPMI-8226 leukemia): 34.4 µM
- TGI (RPMI-8226 leukemia): > 100 µM
- GI50 (RXF 393 renal): 46.4 µM
- TGI (RXF 393 renal): > 100 µM
- GI50 (SF-268 CNS): > 100 µM
- TGI (SF-268 CNS): > 100 µM
- GI50 (SF-295 CNS): > 100 µM
- TGI (SF-295 CNS): > 100 µM
- GI50 (SF-539 CNS): > 100 µM
- TGI (SF-539 CNS): > 100 µM
- GI50 (SK-MEL-2 melanoma): 27.3 µM
- TGI (SK-MEL-2 melanoma): 55.7 µM
- GI50 (SK-MEL-28 melanoma): 4.03 µM
- TGI (SK-MEL-28 melanoma): 9.78 µM
- GI50 (SK-MEL-5 melanoma): 10.8 µM
- TGI (SK-MEL-5 melanoma): 37.9 µM
- GI50 (SK-OV-3 ovarian): 79.7 µM
- TGI (SK-OV-3 ovarian): > 100 µM
- GI50 (SN12C renal): 72.4 µM
- TGI (SN12C renal): > 100 µM
- GI50 (SNB-19 CNS): > 100 µM
- TGI (SNB-19 CNS): > 100 µM
- GI50 (SNB-75 CNS): 41.1 µM
- TGI (SNB-75 CNS): > 100 µM
- GI50 (SR leukemia): 31.3 µM
- TGI (SR leukemia): 96.5 µM
- GI50 (SW-620 colon): 18.8 µM
- TGI (SW-620 colon): > 100 µM
- GI50 (T-47D breast): 59.3 µM
- TGI (T-47D breast): > 100 µM
- GI50 (TK-10 renal): > 100 µM
- TGI (TK-10 renal): > 100 µM
- GI50 (U251 glioblastoma): 97.2 µM
- TGI (U251 glioblastoma): > 100 µM
- GI50 (UACC-257 melanoma): 5.54 µM
- TGI (UACC-257 melanoma): 37.2 µM
- GI50 (UACC-62 melanoma): 4.95 µM
- TGI (UACC-62 melanoma): 28.9 µM
